Read-outs that look alike come from different tables or passages of the source.
Tests used:
[1] = target: Shiga toxin type 1 subunit A (StxA1) (Bacteriophage H30, UniProt P10149); assay: biochemical; assay type: biochemical, Escherichia coli
Vero cells = details: for concentrations at which the compound was itself cytotoxic: African green monkey
RTA = details: read-out: IC50 for RTA; cited from earlier work

Shiga toxin type 1 subunit A (StxA1), sequence (P10149 23-273 limits assumed): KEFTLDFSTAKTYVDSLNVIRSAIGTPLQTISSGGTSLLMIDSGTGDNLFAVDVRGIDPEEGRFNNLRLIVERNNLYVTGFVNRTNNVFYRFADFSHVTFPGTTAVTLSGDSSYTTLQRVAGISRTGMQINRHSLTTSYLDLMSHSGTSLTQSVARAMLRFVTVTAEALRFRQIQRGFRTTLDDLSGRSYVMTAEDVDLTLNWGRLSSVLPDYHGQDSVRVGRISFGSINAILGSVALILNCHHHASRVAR

| SMILES | concentrations at which the compound was itself cytotoxic (Vero cells) | IC50 (RTA) [µM] | also measured |
| --- | --- | --- | --- |
| O=C(CSc1nnc[nH]1)N(Cc1ccc(F)cc1)C1CCCCC1 [Compound C17-1, N-cyclohexyl-N-[(4-fluorophenyl)methyl]-2-(4H-1,2,4-triazol-3-ylsulfanyl)acetamide] | > 100 µM |  | IC50 [1]: 500 µM |
| CS(=O)(=O)c1nc2ccccc2n1Cc1cccc2ccccc12 [Compound 4, 2-methylsulfonyl-1-(naphthalen-1-ylmethyl)benzimidazole] | > 30 µM |  |  |
| Nc1nc2ncc(CNc3ccc(C(=O)O)cc3)nc2c(=O)[nH]1 [pteroic acid (PTA), pteroic acid] |  | ~600 |  |
| Cc1ccc(/C=C/C(=O)NC2CCCc3ccccc32)o1 (stereo not drawn) [Compound 1, (E)-3-(5-methylfuran-2-yl)-N-(1,2,3,4-tetrahydronaphthalen-1-yl)prop-2-enamide] |  |  | IC50 [1]: ~700 µM; cytotoxicity of the compound itself (Vero cells): did not exhibit significant cytotoxicity |
| O=C(OCc1ccc(F)cc1)c1cc(-c2ccco2)nc2ccccc12 [Compound 8, 4-fluorophenyl methyl 2-(furan-2-yl)quinoline-4-carboxylate] |  |  | IC50 ([1]; read-out: StxA1 IC50): 40 µM; IC50 ([1]; read-out: apparent IC50 for StxA1): ~40 µM |
| Nc1cc(O)c(N)c(O)n1 [DDP, 2,5-diamino-4-6-dihydroxypyridine] |  | 2200 |  |
| COC(=O)C(C)N1C(=O)S/C(=C/c2ccc(N3CCCCCC3)o2)C1=O (stereo not drawn) [Compound 3, methyl 2-[(5E)-5-[[5-(azepan-1-yl)furan-2-yl]methylidene]-2,4-dioxo-1,3-thiazolidin-3-yl]propanoate] | less than 20 μM |  |  |
| CC(C)Nc1nc(C#N)nc(NC(C)C)n1 [Compound 2, 4,6-bis(propan-2-ylamino)-1,3,5-triazine-2-carbonitrile] |  |  | cytotoxicity of the compound itself (Vero cells): moderately cytotoxic |
| Cc1nc2c(=O)[nH]c(N)nc2o1 [8-methyl-9-oxaguanine] |  | ~400 |  |

— PMC2902711 (Toxicon : official journal of the International Society on …, 2010)
